In article PMC5378956, “Inhibition of delta-secretase improves cognitive functions in mouse models of Alzheimer's disease” (Nature Communications, 2017):
Where two headings read alike, the source gives them in different places.

Experiments:
CYP3A4 = CYP3A4 (Homo sapiens, UniProt P08684); assay: CYP inhibition screening in microsomes; conditions: pH 7.4, probe midazolam
[1] = Liver microsomal stability, mouse; conditions: Mouse microsomes, 30 min, 37 °C
Protocol: Supplementary Table 4: Liver microsomal stability
Compound Species Mean Remaining Parent Mean Remaining Parent
(with NADPH) (NADPH-free)
The test agents were incubated in duplicate with microsomes at 37 °C for 30 min. The reaction contained microsomal protein in 100 mM potassium phosphate, 2 mM NADPH, 3 mM MgCl2, pH 7.4. A control was run for each test agent omitting NADPH to detect NADPH-free degradation. Data are reported as % remaining of parent compound. ND, Peak not detected due to bioanalysis issue (poor ionization).

CYP2C19 = CYP2C19 (Homo sapiens, UniProt P33261); assay: CYP inhibition screening in microsomes; conditions: pH 7.4
Chain of CYP2C19 (P33261 whole entry): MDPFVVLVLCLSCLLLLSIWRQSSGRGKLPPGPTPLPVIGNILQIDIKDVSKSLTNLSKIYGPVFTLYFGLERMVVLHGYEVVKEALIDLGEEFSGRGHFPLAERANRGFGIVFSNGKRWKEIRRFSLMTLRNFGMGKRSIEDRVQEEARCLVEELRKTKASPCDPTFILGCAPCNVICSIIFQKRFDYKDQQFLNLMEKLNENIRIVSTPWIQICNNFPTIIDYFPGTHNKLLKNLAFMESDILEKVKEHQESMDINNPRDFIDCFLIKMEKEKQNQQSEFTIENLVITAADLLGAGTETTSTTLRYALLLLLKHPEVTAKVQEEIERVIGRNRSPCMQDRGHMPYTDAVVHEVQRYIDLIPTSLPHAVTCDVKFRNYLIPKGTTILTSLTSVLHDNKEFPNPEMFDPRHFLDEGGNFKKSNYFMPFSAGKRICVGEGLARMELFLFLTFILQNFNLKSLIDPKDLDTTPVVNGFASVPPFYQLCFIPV

cathepsin-S = molecular target: T1, cathepsin-S (Homo sapiens, UniProt P25774); assay: IC50 assay with recombinant cathepsin-S; format: biochemical; conditions: mean±s.d.
T1 construct: purchased Athens Research and Technology (Athens, GA)
T1 sequence (P25774 115-331, species assumed): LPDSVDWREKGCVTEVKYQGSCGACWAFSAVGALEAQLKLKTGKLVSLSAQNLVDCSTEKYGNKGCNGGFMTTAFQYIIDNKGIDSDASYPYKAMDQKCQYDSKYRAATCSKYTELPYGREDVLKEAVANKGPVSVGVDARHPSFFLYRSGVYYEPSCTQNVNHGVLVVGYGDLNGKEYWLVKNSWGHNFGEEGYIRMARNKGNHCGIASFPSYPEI
Protocol: Cathepsin-S – 100 nM enzyme was pre-incubated with inhibitor in assay buffer (100 mM NaH2PO4 pH 6.5, 100 mM NaCl) for 10 min at 37 °C. The reaction was initiated on addition of 25 μM substrate (Boc-Val-Leu-Lys-AMC (Bachem).
(§1) To determine the IC50 values of the compounds towards δ-secretase, cathepsin-S, cathepsin-L, caspase-3 and caspase-8, purified recombinant enzyme was incubated in appropriate assay buffers in the presence of increasing concentrations of inhibitors. The formation of fluorescent product was monitored in duplicate reactions and the data were fit to appropriate equations to calculate the IC50 values.

CYP2C9 = CYP2C9 (Homo sapiens, UniProt P11712); assay: CYP inhibition screening in microsomes; conditions: pH 7.4
Chain of CYP2C9 (P11712 whole entry): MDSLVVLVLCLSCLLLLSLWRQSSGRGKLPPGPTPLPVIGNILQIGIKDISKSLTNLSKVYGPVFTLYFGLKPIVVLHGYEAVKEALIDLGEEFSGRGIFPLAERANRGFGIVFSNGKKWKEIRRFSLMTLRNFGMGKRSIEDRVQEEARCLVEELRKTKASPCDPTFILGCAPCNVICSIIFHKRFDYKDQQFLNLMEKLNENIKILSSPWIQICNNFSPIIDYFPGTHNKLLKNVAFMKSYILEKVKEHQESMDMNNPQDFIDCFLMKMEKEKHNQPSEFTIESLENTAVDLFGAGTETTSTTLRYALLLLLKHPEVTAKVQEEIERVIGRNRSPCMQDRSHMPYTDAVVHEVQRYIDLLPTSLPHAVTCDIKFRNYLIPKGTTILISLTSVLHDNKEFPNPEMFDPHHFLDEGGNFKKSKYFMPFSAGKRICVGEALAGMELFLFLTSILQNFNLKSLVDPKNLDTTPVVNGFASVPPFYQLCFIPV

CYP1A2 = molecular target: T2, CYP1A2 (Homo sapiens, UniProt P05177); assay: CYP inhibition screening in microsomes; conditions: pH 7.4
T2 sequence (P05177 1-516): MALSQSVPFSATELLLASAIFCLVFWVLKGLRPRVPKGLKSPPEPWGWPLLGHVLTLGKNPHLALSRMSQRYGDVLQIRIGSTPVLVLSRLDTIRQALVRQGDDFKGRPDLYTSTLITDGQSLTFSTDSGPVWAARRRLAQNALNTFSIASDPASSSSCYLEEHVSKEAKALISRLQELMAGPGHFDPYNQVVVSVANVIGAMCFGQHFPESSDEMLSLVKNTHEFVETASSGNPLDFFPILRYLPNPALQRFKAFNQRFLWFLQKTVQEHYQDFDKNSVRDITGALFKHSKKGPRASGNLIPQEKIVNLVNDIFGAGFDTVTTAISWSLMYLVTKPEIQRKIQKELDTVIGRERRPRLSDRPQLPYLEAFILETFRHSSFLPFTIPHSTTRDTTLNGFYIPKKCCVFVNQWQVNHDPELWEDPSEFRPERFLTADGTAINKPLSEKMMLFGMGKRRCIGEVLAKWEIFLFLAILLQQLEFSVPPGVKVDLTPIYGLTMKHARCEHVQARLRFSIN

CYP3A = assay: CYP inhibition screening in microsomes; conditions: human
[2] = Caco-2 monolayer permeability screen; conditions: human, Caco-2
Protocol: Supplementary Table 3: Caco-2 permeability and BBB-PAMPA permeability
For CaCo-2 permeability assay, cells were incubated with 10 µM of these reagents in
buffers for 2 h, and the receiver side buffer is removed for analysis by LC/MS/MS. Efflux […]
LLOQ: Lower Limit of Quantification; Papp: apparent permeability.

cathepsin-L = cathepsin-L (Homo sapiens, UniProt P07711); assay: IC50 assay with cathepsin-L; format: biochemical; conditions: mean±s.d.
Chain of cathepsin-L (P07711 114-333, species assumed): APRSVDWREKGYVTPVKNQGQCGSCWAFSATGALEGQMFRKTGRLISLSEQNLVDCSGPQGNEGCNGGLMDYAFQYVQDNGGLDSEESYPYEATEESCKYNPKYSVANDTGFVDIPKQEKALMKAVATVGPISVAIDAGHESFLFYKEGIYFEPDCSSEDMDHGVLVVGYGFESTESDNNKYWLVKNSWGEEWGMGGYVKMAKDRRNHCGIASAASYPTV
Protocol: Cathepsin-L – 100 nM enzyme was pre-incubated with inhibitor in assay buffer (100 mM Sodium Acetate pH 5.5, 1 mM EDTA) for 10 min at 37 °C. The reaction was initiated on addition of 25 μM substrate (D-Val-Leu-Lys-AMC (Bachem).
as §1

[3] = molecular target: T3, δ-secretase in Pala cells (Homo sapiens, UniProt Q99538); assay: δ-secretase inhibition in intact Pala cells
T3 sequence (Q99538 18-433): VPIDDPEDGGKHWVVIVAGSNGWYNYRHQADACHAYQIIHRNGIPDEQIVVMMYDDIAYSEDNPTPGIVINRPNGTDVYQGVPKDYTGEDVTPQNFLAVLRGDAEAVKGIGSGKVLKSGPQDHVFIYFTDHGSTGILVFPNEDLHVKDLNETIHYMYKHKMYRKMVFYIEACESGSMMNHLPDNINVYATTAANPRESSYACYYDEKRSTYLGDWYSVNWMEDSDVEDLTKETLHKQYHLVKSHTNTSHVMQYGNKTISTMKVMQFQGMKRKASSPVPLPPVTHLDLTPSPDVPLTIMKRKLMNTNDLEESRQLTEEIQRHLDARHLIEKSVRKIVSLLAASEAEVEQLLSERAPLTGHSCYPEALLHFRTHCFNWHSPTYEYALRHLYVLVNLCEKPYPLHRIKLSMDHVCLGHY
Protocol: Cells were collected, washed twice with PBS and lysed in Lysis Buffer (20 mM citric acid, 60 mM disodium hydrogen orthophosphate, 1 mM EDTA, 0.1% CHAPS, pH 5.8). […] Data were analysed with GraFit version 5.0.11 software package.
δ-secretaseactivity assay.

δ-secretase = molecular target: T4, δ-secretase (Homo sapiens, UniProt Q99538); assay: IC50 assay with purified recombinant δ-secretase (AEP), substrate Cbz-Ala-Ala-Asn-AMC; format: biochemical
T4 construct: tested with purified active δ-secretase, IC50 values for the top 8 candidates were calculated; purchased Sino Biological (Beijing, China)
T4 sequence (Q99538 18-323 limits assumed): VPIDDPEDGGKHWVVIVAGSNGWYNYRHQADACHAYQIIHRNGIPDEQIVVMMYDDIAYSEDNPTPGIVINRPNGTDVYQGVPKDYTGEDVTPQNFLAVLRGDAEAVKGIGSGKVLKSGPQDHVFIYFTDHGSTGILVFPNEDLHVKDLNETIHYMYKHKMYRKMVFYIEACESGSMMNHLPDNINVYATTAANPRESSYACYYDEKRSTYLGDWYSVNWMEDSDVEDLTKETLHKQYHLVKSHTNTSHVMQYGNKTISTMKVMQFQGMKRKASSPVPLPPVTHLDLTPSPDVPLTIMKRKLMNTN
Protocol: δ-secretase – 50 nM enzyme was pre-incubated with inhibitor in assay buffer (50 mM Sodium Citrate pH 5.5, 0.1% CHAPS, 60 mM Na2HPO4, 1 mM EDTA) for 10 min at 37 °C. The reaction was initiated on addition of 10 μM Cbz-Ala-Ala-Asn-AMC (Bachem).
as §1

[4] = purified recombinant enzyme, mean±s.d., read-out: IC50 AEP (δ-secretase)

Chain of CYP3A4 (P08684 whole entry): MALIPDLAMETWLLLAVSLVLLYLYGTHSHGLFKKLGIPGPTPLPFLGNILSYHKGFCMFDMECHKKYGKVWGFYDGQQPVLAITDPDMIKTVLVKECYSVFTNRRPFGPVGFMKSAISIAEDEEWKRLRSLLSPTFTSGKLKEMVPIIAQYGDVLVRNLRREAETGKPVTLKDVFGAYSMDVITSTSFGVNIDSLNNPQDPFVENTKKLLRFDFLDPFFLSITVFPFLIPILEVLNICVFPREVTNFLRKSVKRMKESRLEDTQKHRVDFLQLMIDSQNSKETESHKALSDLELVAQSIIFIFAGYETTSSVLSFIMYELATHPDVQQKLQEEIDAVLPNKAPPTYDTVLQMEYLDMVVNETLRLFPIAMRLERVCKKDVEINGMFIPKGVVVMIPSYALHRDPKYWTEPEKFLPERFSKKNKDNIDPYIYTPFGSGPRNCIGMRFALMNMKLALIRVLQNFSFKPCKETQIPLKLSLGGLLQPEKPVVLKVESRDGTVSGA

With `Nc1ccc(N2CCOCC2)c2nonc12` [compound 11, 7-(morpholin-4-yl)-2,1,3-benzoxadiazol-4-amine] the inhibition at 10 min, 3 µM (CYP3A4) was 3.6%, the inhibition at 10 min, 10 µM (CYP3A4) was 8% and the “Mean Remaining Parent (NADPH-free)” value [1] was 103%. The “Mean Remaining Parent (with NADPH)” value [1] was 20%, the inhibition at 10 min, 3 µM (CYP2C19) was 4.4% and the inhibition at 10 min, 10 µM (CYP2C19) was 6.8%. The IC50 (cathepsin-S) was > 200 µM, the inhibition at 10 min, 3 µM (CYP2C9) was 4.3% and the inhibition at 10 min, 10 µM (CYP2C9) was 5.6%. It also gave an inhibition at 10 min, 3 µM (CYP1A2) of 13.1%, an inhibition at 10 min, 10 µM (CYP1A2) of 37% and an inhibition at 10 min, 3 µM (CYP3A; pH 7.4) of 4.1%. The inhibition at 10 min, 10 µM (CYP3A; pH 7.4) was 21.6%, the Papp A→B at 2 h, 10 µM [2] was 35 ×10⁻⁶ cm/s and the Papp B→A at 2 h, 10 µM [2] was 7 ×10⁻⁶ cm/s. For the same compound, the IC50 (cathepsin-L) was > 200 µM.

For `Cc1cccc(NCc2ccc(O)c3ncccc23)c1C` [compound 12], the inhibition at 10 min, 3 µM (CYP3A4) was -2.5%, the inhibition at 10 min, 10 µM (CYP3A4) was -2.5% and the IC50 [3] was 430 ± 210 nM. For the same compound, the “Mean Remaining Parent (NADPH-free)” value [1] was 0%, the “Mean Remaining Parent (with NADPH)” value [1] was 1% and the inhibition at 10 min, 3 µM (CYP2C19) was 13.4%. For the same compound, the inhibition at 10 min, 10 µM (CYP2C19) was 29.4%, the IC50 (cathepsin-S) was > 200 µM and the inhibition at 10 min, 3 µM (CYP2C9) was 4.3%. For the same compound, the inhibition at 10 min, 10 µM (CYP2C9) was -2.7%, the IC50 (δ-secretase; [4]) was 280 ± 20 nM and the inhibition at 10 min, 3 µM (CYP1A2) was 28.4%. For the same compound, the inhibition at 10 min, 10 µM (CYP1A2) was 44.5%, the inhibition at 10 min, 3 µM (CYP3A; pH 7.4, probe testosterone) was 14.2% and the inhibition at 10 min, 10 µM (CYP3A; pH 7.4, probe testosterone) was 27.6%. The Papp A→B at 2 h, 10 µM [2] was 1.4 ×10⁻⁶ cm/s, the Papp B→A at 2 h, 10 µM [2] was 3.7 ×10⁻⁶ cm/s and the efflux ratio at 2 h, 10 µM [2] was 2.7. The IC50 (cathepsin-L) was > 200 µM.

In the case of `COc1ccc(N2CCN(C(c3ccc(N(C)C)cc3)c3nnnn3C(C)(C)C)CC2)cc1` (centres unmarked) [compound 31], the inhibition at 10 min, 3 µM (CYP3A4) is reported as -0.9%, the inhibition at 10 min, 10 µM (CYP3A4) is reported as 18.1% and the IC50 [3] is reported as 670 ± 400 nM. The “Mean Remaining Parent (NADPH-free)” value [1] was 86%, the “Mean Remaining Parent (with NADPH)” value [1] was 16% and the inhibition at 10 min, 3 µM (CYP2C19) was 37.7%. The inhibition at 10 min, 10 µM (CYP2C19) was 55.7%, the IC50 (cathepsin-S) was > 100 µM and the inhibition at 10 min, 3 µM (CYP2C9) was 47.8%. It also gave an inhibition at 10 min, 10 µM (CYP2C9) of 69.2%, an IC50 (δ-secretase; [4]) of 260 ± 30 nM and an inhibition at 10 min, 3 µM (CYP1A2) of 13.5%. For the same compound, the inhibition at 10 min, 10 µM (CYP1A2) was 10.3%, the inhibition at 10 min, 3 µM (CYP3A; pH 7.4, probe testosterone) was 2.5% and the inhibition at 10 min, 10 µM (CYP3A; pH 7.4, probe testosterone) was 0.7%. For the same compound, the Papp A→B at 2 h, 10 µM [2] was 19.3 ×10⁻⁶ cm/s, the Papp B→A at 2 h, 10 µM [2] was 17.4 ×10⁻⁶ cm/s and the efflux ratio at 2 h, 10 µM [2] was 0.9. For the same compound, the IC50 (cathepsin-L) was 1.3 ± 0.39 µM.

In the case of `Cn1c(=O)[nH]c(=O)c2c1nc(S)n2CC(O)COc1ccc(Cl)cc1` (centres unmarked) [compound 38], the inhibition at 10 min, 3 µM (CYP3A4) is reported as 7.3%, the inhibition at 10 min, 10 µM (CYP3A4) is reported as 10.4% and the IC50 [3] is reported as 110 ± 50 nM. For the same compound, the “Mean Remaining Parent (NADPH-free)” value [1] was 99%, the “Mean Remaining Parent (with NADPH)” value [1] was 98% and the inhibition at 10 min, 3 µM (CYP2C19) was -12%. For the same compound, the inhibition at 10 min, 10 µM (CYP2C19) was 9.5%, the IC50 (cathepsin-S) was > 200 µM and the inhibition at 10 min, 3 µM (CYP2C9) was 15.6%. For the same compound, the inhibition at 10 min, 10 µM (CYP2C9) was 17.1%, the IC50 (δ-secretase; purified active δ-secretase, read-out: IC50 / potency toward δ-secretase) was ~370 nM and the IC50 (δ-secretase; [4]) was 370 ± 60 nM. The inhibition at 10 min, 3 µM (CYP1A2) was -7.6%, the inhibition at 10 min, 10 µM (CYP1A2) was 10.5% and the inhibition at 10 min, 3 µM (CYP3A; pH 7.4, probe testosterone) was -6%. For the same compound, the inhibition at 10 min, 10 µM (CYP3A; pH 7.4, probe testosterone) was 2.4%, the Papp A→B at 2 h, 10 µM [2] was 1.1 ×10⁻⁶ cm/s and the Papp B→A at 2 h, 10 µM [2] was 20.3 ×10⁻⁶ cm/s. The efflux ratio at 2 h, 10 µM [2] was 18.2 and the IC50 (cathepsin-L) was > 200 µM.
